Results taken from patent publication US10780184B2, “Fluorescent solid lipid nanoparticles composition and preparation thereof” (BRACCO IMAGING S.P.A., priority 2013, dated 2020).

What was measured:
[1] = Photobleaching experiment, 785 nm laser radiation; format: physicochemical; details: aqueous medium, 37° C., 3 sec irradiation/1 sec dark repeated for 1 h
Experimental: A further advantage of the present invention is the improved photostability of the dye with respect to the free dye in water solution. An experiment was performed in aqueous medium by the exposition of free ICG solution and the ICG loaded SLNs suspension to a 785 nm laser radiation (see FIG. 2, Example 8). The fluorescence emissions were collected by NIR fluorescent imaging system (Pearl® Impulse system by LI-COR Biosciences). […] Then, the experiment was carried out in duplicate at 37° C. irradiating both samples for 3 sec and keeping the samples in the dark for 1 sec. This sequence was repeated in continuous for 1 h.
The photobleaching experiment was performed by the exposition of free ICG aqueous solution and the ICG loaded SLNs suspension to a 785 nm laser radiation The fluorescence emissions were collected by NIR fluorescent imaging system (Pearl Impulse system by LI-COR Biosciences).
Then, the experiment was carried out in duplicate at 37° C. irradiating both samples for 3 sec and keeping the samples in the dark for 1 sec. This sequence was repeated in continuous for 1 h.

[2] = UV-Vis spectra for J-aggregates evaluation; format: physicochemical; details: SLNs suspension up to 120 days, free ICG in aqueous solution up to 15 days
Experimental: In FIG. 4 (panel A, Example 7) there are reported the UV-Vis spectra of ICG-loaded SLNs suspension just after the formulation date and 90 and 120 days later. […] The absorbance at 800 nm is recovered at 96% with respect to the initial value. In addition, the fluorescence emission properties can be preserved by the incorporation of ICG in the SLNs over the observed period of time (data not shown).
UV-Vis spectra of ICG-loaded SLNs suspension, prepared as described in the example 4, were recorded after the end of the formulation date, 90 and 120 days later keeping the suspension at store condition. After 120 days the absorbance was recovered at 96% with respect to the initial value (FIG. 4 A).
A solution of ICG (0.14 mg/mL) was prepared in glucosate (5.5%) solution. The sample was diluted before the Uv-Vis analysis and the absorption behaviour was evaluated from 300 to 950 nm until 15 days (FIG. 4 B).

[3] = Optical properties (absorption and emission maxima, Stokes' shift); format: physicochemical; details: SLNs formulation (example 4) or H2O
Text: Additional optical features (i.e. maximum absorption and emission wavelengths, Stokes' shifts) of ICG in aqueous medium and after incorporation in the SLNs are reported in Table E.

[4] = human recommended dose of 0.5 mg/kg, intravenous; cited from earlier work
[5] = tendency to aggregate; cited from earlier work

CC1(C)C(/C=C/C=C/C=C/C=C2/N(CCCCS(=O)(=O)[O-])c3ccc4ccccc4c3C2(C)C)=[N+](CCCCS(=O)(=O)[O-])c2ccc3ccccc3c21.[Na+] [ICG, Indocyanine Green]
fluorescence emission remaining, of the initial emission fluorescence efficiency [1]: slightly above zero | aggregates (J-aggregates) formation [2]: can aggregate in few days | A max wavelength (nm) [3]: 780 nm | Fluor. Emission λmax (nm) [3]: 809 nm | Stokes' shift [3]: 29 | blood half-time [4]: around 3.0 minutes | time within which aqueous solution must be used [5]: ≤ 6 h
